Key:
[1] = biological target: T1, CB2 receptors (Rattus norvegicus, UniProt Q9QZN9); experiment: Radioreceptor binding, [3H]-CP-55,940 displacement, rat spleen membranes; conditions: 1 nM [3H]-CP55,940
T1 construct: the brain in toto (cerebellum excluded) and the spleen were rapidely dissected; from tissue; host or cells: rat spleen membranes
T1 sequence (Q9QZN9 1-360): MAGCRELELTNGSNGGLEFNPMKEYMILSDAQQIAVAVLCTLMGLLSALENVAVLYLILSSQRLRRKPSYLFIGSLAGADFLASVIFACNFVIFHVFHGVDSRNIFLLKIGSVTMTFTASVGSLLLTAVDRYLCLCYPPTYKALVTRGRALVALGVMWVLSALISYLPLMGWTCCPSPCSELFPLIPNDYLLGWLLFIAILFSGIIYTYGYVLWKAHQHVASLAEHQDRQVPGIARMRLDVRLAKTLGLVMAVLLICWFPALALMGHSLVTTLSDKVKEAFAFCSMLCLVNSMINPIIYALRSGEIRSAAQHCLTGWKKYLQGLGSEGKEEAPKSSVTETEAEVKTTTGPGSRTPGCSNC
From the text: The receptorial binding technique allows indeed to establish if and with what affinity and specificity a determined compound binds itself to a particular receptor. To evaluate the affinity of a determined compound towards a particular receptor, a particular preparation of the tissue wherein the receptors are present is used and the tested compound is made to compete with another compound, treated so as to make it radioactive and of which the affinity for the receptor is known. […] The reading of the radioactivity present in the receptor-compound complex allows furthermore to precisely calculate the compound amount bound to the receptor. By this method it is therefore possible to rapidely identify the affinity of a new compound towards a specific receptor and thus to make predictions on its pharmacological activity. By repeating the same experimental scheme it is possible to evaluate the affinity of the compound towards other kinds of receptors and thus establish the specificity degree.
Food and water were available ad libitum.
The animals were sacrificed by cervical dislocation, the brain in toto (cerebellum excluded) and the spleen were rapidely dissected and maintained in ice.
The tissue was homogenized in 15 volumes (weight/volume) of TME buffer (50 mM Tris, 1 mM EDTA e 3 mM MgCl2, pH 7.4) by an Ultra-Turrax and centrifuged for 10 minutes at 1086×g in a centrifuge cooled at 4° C. The resulting supernatant was centrifuged at 45,000×g for 30 min at 4° C. by using a Beckman SW41 rotor and the final pellet was resuspended in 50 volumes of TME.
The obtained membranes (50-80 μg of proteins) were incubated in the presence of 1 nM di [^3H]-CP55,940 for 1 h at 30° C. in a final volume of 0.5 ml of TME buffer containing 5 mg/ml of bovine serum albumin (BSA). The non specific binding was measured in the presence of CP55,940 at the 1 μM concentration. […]
The radioactivity present in the filters was measured by a scintillator spectrophotometer (Tricarb 2100, Packard, Meridien, USA). […]

[2] = biological target: T2, CB1 receptors (Rattus norvegicus, UniProt P20272); experiment: Hypothermia test in vivo, compound alone (rectal temperature); design: from tissue; host or cells: whole animal (rat), central CB1 receptors of the hypothalamus; conditions: i.p., doses 0.1, 0.5, 1.0, 3.0, 6.0 mg/kg, versus physiological solution (38° C.)
Protocol: The test was carried out with the compound of the Example 3.1c. Aqueous samples were used wherein the compound of the Example 3.1c was dispersed in water with three drops of Tween 80. Following the above procedure, treatments were carried out with doses (mg compound/kg of body weight) respectively of 0.1; 0.5; 1.0; 3.0; 6.0.

[3] = biological target: T2, CB1 receptors; experiment: Antagonism of WIN 55,212-2 induced hypothermia in vivo; conditions: for capability to pass the hemato-encephalic barrier: concluded from the hypothermia test; for antagonism of the body temperature reduction induced by WIN 55,212-2: i.p., compound 30 minutes before WIN 55,212-2 (3 mg/kg)
Protocol: The rectal temperature in the rat was determined by an electronic thermometer inserted at a 2 mm depth. The measurements were carried out on rats acclimated for one hour. The rectal temperature was determined before and after (from 30 to 120 minutes) the i.p. administration of the compound to be tested.
Each test was repeated on ten animals; the reported results are the average of the results obtained with the ten animals.

[4] = WIN 55,212-2 (3 mg/kg) + compound 0.1 mg/kg, 0 min from WIN administration
[5] = WIN 55,212-2 (3 mg/kg) + compound 0.1 mg/kg, 15 min
[6] = WIN 55,212-2 (3 mg/kg) + compound 0.1 mg/kg, 30 min
[7] = WIN 55,212-2 (3 mg/kg) + compound 0.1 mg/kg, 60 min
[8] = WIN 55,212-2 (3 mg/kg) + compound 0.1 mg/kg, 90 min
[9] = WIN 55,212-2 (3 mg/kg) + compound 0.1 mg/kg, 120 min
[10] = WIN 55,212-2 (3 mg/kg) + compound 0.5 mg/kg, 0 min from WIN administration
[11] = WIN 55,212-2 (3 mg/kg) + compound 0.5 mg/kg, 15 min
[12] = WIN 55,212-2 (3 mg/kg) + compound 0.5 mg/kg, 30 min
[13] = WIN 55,212-2 (3 mg/kg) + compound 0.5 mg/kg, 60 min
[14] = WIN 55,212-2 (3 mg/kg) + compound 0.5 mg/kg, 90 min
[15] = WIN 55,212-2 (3 mg/kg) + compound 0.5 mg/kg, 120 min
[16] = WIN 55,212-2 (3 mg/kg) + compound 1.0 mg/kg, 0 min from WIN administration
[17] = WIN 55,212-2 (3 mg/kg) + compound 1.0 mg/kg, 15 min
[18] = WIN 55,212-2 (3 mg/kg) + compound 1.0 mg/kg, 30 min
[19] = WIN 55,212-2 (3 mg/kg) + compound 1.0 mg/kg, 60 min
[20] = WIN 55,212-2 (3 mg/kg) + compound 1.0 mg/kg, 90 min
[21] = WIN 55,212-2 (3 mg/kg) + compound 1.0 mg/kg, 120 min
[22] = WIN 55,212-2 (3 mg/kg) + compound 3.0 mg/kg, 0 min from WIN administration
[23] = WIN 55,212-2 (3 mg/kg) + compound 3.0 mg/kg, 15 min
[24] = WIN 55,212-2 (3 mg/kg) + compound 3.0 mg/kg, 30 min
[25] = WIN 55,212-2 (3 mg/kg) + compound 3.0 mg/kg, 60 min
[26] = WIN 55,212-2 (3 mg/kg) + compound 3.0 mg/kg, 90 min
[27] = WIN 55,212-2 (3 mg/kg) + compound 3.0 mg/kg, 120 min
[28] = WIN 55,212-2 (3 mg/kg) + compound 6.0 mg/kg, 0 min from WIN administration
[29] = WIN 55,212-2 (3 mg/kg) + compound 6.0 mg/kg, 15 min
[30] = WIN 55,212-2 (3 mg/kg) + compound 6.0 mg/kg, 30 min
[31] = WIN 55,212-2 (3 mg/kg) + compound 6.0 mg/kg, 60 min
[32] = WIN 55,212-2 (3 mg/kg) + compound 6.0 mg/kg, 90 min
[33] = WIN 55,212-2 (3 mg/kg) + compound 6.0 mg/kg, 120 min

T2 sequence (P20272 whole entry): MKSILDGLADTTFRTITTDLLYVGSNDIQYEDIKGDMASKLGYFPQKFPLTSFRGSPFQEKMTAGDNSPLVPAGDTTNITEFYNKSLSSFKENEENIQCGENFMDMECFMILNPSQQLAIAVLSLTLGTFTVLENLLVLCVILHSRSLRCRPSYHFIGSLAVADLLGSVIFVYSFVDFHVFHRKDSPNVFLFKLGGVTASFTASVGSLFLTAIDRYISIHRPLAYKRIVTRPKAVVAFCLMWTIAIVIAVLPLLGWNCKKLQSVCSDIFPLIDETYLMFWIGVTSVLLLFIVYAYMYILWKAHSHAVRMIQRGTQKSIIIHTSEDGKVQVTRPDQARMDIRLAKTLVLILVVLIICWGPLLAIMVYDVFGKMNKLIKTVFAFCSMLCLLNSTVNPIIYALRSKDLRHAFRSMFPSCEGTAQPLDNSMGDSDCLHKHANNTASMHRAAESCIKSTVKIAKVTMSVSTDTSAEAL

| Compound | Ki [1] | effect of the compound as such on body temperature [2] | Body temperature (° C.) [3, 4] | Body temperature (° C.) [3, 5] | Body temperature (° C.) [3, 6] | Body temperature (° C.) [3, 7] | Body temperature (° C.) [3, 8] | Body temperature (° C.) [3, 9] | Body temperature (° C.) [3, 10] | Body temperature (° C.) [3, 11] | Body temperature (° C.) [3, 12] | Body temperature (° C.) [3, 13] | Body temperature (° C.) [3, 14] | Body temperature (° C.) [3, 15] | Body temperature (° C.) [3, 16] | Body temperature (° C.) [3, 17] | Body temperature (° C.) [3, 18] | Body temperature (° C.) [3, 19] | Body temperature (° C.) [3, 20] | Body temperature (° C.) [3, 21] | also measured |
| --- | --- | --- | --- | --- | --- | --- | --- | --- | --- | --- | --- | --- | --- | --- | --- | --- | --- | --- | --- | --- | --- |
| Cc1c(C(=O)NN2CCCCC2)nn(-c2ccc(Cl)cc2Cl)c1-c1ccc(Cl)s1 [Example 3.1b, N-piperidinyl-5-(5-Chloro-thiophen-2-yl)-1-(2′,4′-dichloro-phenyl)-4-methyl-1H-pyrazol-3-carboxamide] | 476 ± 3 nM | does not cause as such any effect on the body temperature | 38.5 °C | 35.1 °C | 33.8 °C | 35.3 °C | 36.9 °C | 37.3 °C | 38.1 °C | 35.8 °C | 34.5 °C | 35.7 °C | 36.7 °C | 37.3 °C | 38.3 °C | 36.1 °C | 35.7 °C | 36.8 °C | 37.8 °C | 37.9 °C | Body temperature (° C.) [3, 22]: 38.4 °C; Body temperature (° C.) [3, 23]: 36.1 °C; Body temperature (° C.) [3, 24]: 35.7 °C; Body temperature (° C.) [3, 25]: 36.8 °C; Body temperature (° C.) [3, 26]: 37.8 °C; Body temperature (° C.) [3, 27]: 37.9 °C; Body temperature (° C.) [3, 28]: 38.6 °C; Body temperature (° C.) [3, 29]: 37.7 °C; Body temperature (° C.) [3, 30]: 37.9 °C; Body temperature (° C.) [3, 31]: 37.9 °C; Body temperature (° C.) [3, 32]: 38.2 °C; Body temperature (° C.) [3, 33]: 37.9 °C; capability to pass the hemato-encephalic barrier [3]: capable to pass the hemato-encephalic barrier; CB1 antagonist behaviour in vivo ([3]; hypothermia test): shows a CB1 antagonist behaviour; antagonism of the body temperature reduction induced by WIN 55,212-2 [3]: able to antagonize the effect of WIN 55,212-2 |
| N-pyrrolidinyl-5-(5-Chloro-thiophen-2-yl)-1-(2,4′-dichloro-phenyl)-4-methyl-1H-pyrazol-3-carboxamide [Example 3.1d] | 699 ± 21 nM | does not cause as such any effect on the body temperature | 38.1 °C | 35.3 °C | 33.8 °C | 35.6 °C | 36.5 °C | 37.2 °C | 38.1 °C | 35.7 °C | 34.4 °C | 35.0 °C | 36.3 °C | 37.2 °C | 37.9 °C | 36.5 °C | 34.7 °C | 35.8 °C | 36.7 °C | 37.1 °C | Body temperature (° C.) [3, 22]: 38.4 °C; Body temperature (° C.) [3, 23]: 37.0 °C; Body temperature (° C.) [3, 24]: 36.8 °C; Body temperature (° C.) [3, 25]: 37.3 °C; Body temperature (° C.) [3, 26]: 37.7 °C; Body temperature (° C.) [3, 27]: 37.6 °C; Body temperature (° C.) [3, 28]: 37.8 °C; Body temperature (° C.) [3, 29]: 36.9 °C; Body temperature (° C.) [3, 30]: 36.9 °C; Body temperature (° C.) [3, 31]: 37.2 °C; Body temperature (° C.) [3, 32]: 37.8 °C; Body temperature (° C.) [3, 33]: 37.9 °C; capability to pass the hemato-encephalic barrier [3]: able to pass the hemato-encephalic barrier; antagonism of the body temperature reduction induced by WIN 55,212-2 [3]: able to antagonize the effect of WIN 55,212-2 |

Reference: patent US8227620B2, “Pharmaceutical compounds” (Neuroscienze Pharmaness S.C. A.R.L., priority 2004, dated 2012)
